In US20240067651A1 (Biohaven Therapeutics Ltd., priority 2019, published 2024):

Legend:
[1] = Caco-2 Permeability Assay; format: in vitro ADME, human; conditions: human
Description: The compounds of the invention may be tested for biological activity as MPO inhibitors by methods known to those skilled in the art. In addition, methods such as, for example, a Caco-2 assay, may be used to test the bioavailability of the compounds of the invention. A description of a Caco-2 permeability assay is as follows:
• The Caco-2 monolayer is widely used across the pharmaceutical industry as an in vitro model of the human small intestinal mucosa to predict the absorption of orally administered drugs.^1-4 • The Caco-2 cell model mimics processes such as transcellular transport, paracellular transport, and some aspects of efflux and active transport. • Readout: Papp (A→B), Papp (B→A), Efflux ratio, % Recovery • Controls: with and without Pgp inhibitor; Atenolol, Propanolol, Taxel-1
The Caco-2 cells are cultured to confluency, trypsinized and seeded onto a filter transwell insert at a density of ^˜32,000 cells/well in DMEM cell culture medium. Cells are grown in a humidified atmosphere of 5% CO2 at 37° C. Following an overnight attachment period (24 h after seeding), the cell medium is replaced with fresh medium in both the apical and basolateral compartments every other day. The cell monolayers are used for transport studies 21 days post seeding after measuring the TEER values ([…]). The apical sides and basolateral sides are washed consecutively with HBSS 2.5% (v/v), HEPES (pH 7.4) or HBSS 2.5% (v/v), HEPES 10% (v/v), and Fetal Bovine Serum (pH 7.4) at 37° C. in an incubator under an atmosphere of 5% CO2.
Donor working solution is prepared by dilution of DMSO stock of test article or positive control with transport media to 10 μM.
For A→B directional transport, the donor working solution (with test article or positive control, with or without Pgp inhibitor) is added to the apical (A) compartment and the transport media as receiver working solution is added to the basolateral (B) compartment. For B→A directional transport, the donor working solution (with positive control or test article, with or without Pgp inhibitor) is added to the basolateral (B) compartment and transport media as receiver working solution is added to the apical (A) compartment.
The cells are incubated in a humidified atmosphere of 5% CO2 at 37° C. for 90 minutes.
At the end of the incubation, samples are taken from both donor and receiver compartments and transferred into 96-well assay plates containing internal standard solution (IS) in each well. After centrifugation, the supernatant solutions are transferred to clean 96 well plates and analyzed by LC-MS/MS. The MS detection is performed using a Sciex API 4000 instrument. Each compound is analyzed by reversed phase HPLC.
The parameters Papp (apparent permeability) and efflux ratio are calculated as follows:
Papp=(dQ/dt)×(1/C0)×(1/A)
Efflux ratio=Papp[B→A]/Papp[A→B]
where dQ/dt is the permeability rate, C0 is the initial concentration in the donor compartment, and A is the surface area of the cell monolayer (0.33 cm^2). The Papp value is a rate measured in cm/s. Calculated Papp is ranked as low (<[…]), moderate (1-10×10^−6 cm/s), and high (>[…]).
Comparing the efflux ratios generated in the presence and absence of a Pgp inhibitor identifies whether the test article is a Pgp substrate.
Recovery is calculated as follows:
% Recovery=(Total compound mass in donor and receiver compartments at the end of the incubation/Initial compound mass in the donor compartment)×100.

[2] = Stability in Simulated Intestinal Fluid (SIF); format: in vitro ADME; parameters: key: % parent compound remaining relative to 0-minute sample
Summary of the method: (§1)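 Compound at 2 μg/mL final was incubated at 37 °C with shaking in SGF with pepsin (pH 1.2) or SIF with pancreatin (pH 6.8), sampled from 0 to 60 min. After acetonitrile precipitation, LC-MS/MS gave % parent remaining vs 0 min; half-life came from ln(% remaining) vs time.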

[3] = Plasma Stability; format: in vitro ADME, human
Summary of the method: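 Compounds incubated at 1 μM in fresh human plasma for 1 hour at 37° C, then protein-precipitated with acetonitrile/formic acid containing internal standard. Remaining parent measured by LC-MS/MS in triplicate, expressed as percent of control remaining.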

[4] = Stability in Simulated Gastric Fluid (SGF); format: in vitro ADME; parameters: key: % parent compound remaining relative to 0-minute sample
Summary of the method: as §1

[5] = Caco-2, pH 7.4, Caco-2 monolayer, the 17th table
[6] = % remaining at 1 h in simulated intestinal fluid, the 17th table
[7] = % remaining at 1 h in human plasma, the 17th table
[8] = % remaining at 1 h in simulated gastric fluid, the 17th table
[9] = Caco-2, pH 7.4, Caco-2 monolayer
[10] = simulated intestinal fluid, at 1 h
[11] = simulated gastric fluid, at 1 h
[12] = % remaining at 1 h in simulated intestinal fluid
[13] = % remaining at 1 h in human plasma
[14] = % remaining at 1 h in simulated gastric fluid
[15] = % @ 1 h (remaining) in simulated intestinal fluid
[16] = % @ 1 h (remaining) in human plasma
[17] = % @ 1 h (remaining) in simulated gastric fluid
[18] = bare number, no % and no time given

SMILES: CCC(C)NC(=O)n1ccc2c1c(=O)[nH]c(=S)n2CCOC(C)C (stereo not drawn) [Example 226]
- Papp at 90 min, 10 µM [1, 5]: 35.1 ×10⁻⁶ cm/s
- SIF [2, 6]: 83% remaining
- human Plasma stability [3, 7]: 97% remaining
- SGF [4, 8]: 91% remaining

SMILES: CC(C)OCCn1c(=S)[nH]c(=O)c2c1ccn2COC(=O)CCCOC(=O)[C@H](N)Cc1ccccc1.O=C(O)C(F)(F)F [Example 362, trifluoroacetic acid {4-oxo-1-[2-(propan-2-yloxy)ethyl]-2-sulfanylidene-1H,2H,3H,4H,5H-pyrrolo[3,2-d]pyrimidin-5-yl}methyl 4-{[(2R)-2-amino-3-phenylpropanoyl]oxy}butanoate]
- Papp at 90 min, 10 µM [1, 9]: 5.12 ×10⁻⁶ cm/s
- SIF ([2]; simulated intestinal fluid, remaining at 1 h): 2% remaining
- human Plasma stability ([3]; human plasma, remaining at 1 h): 3% remaining
- SGF ([4]; simulated gastric fluid, remaining at 1 h): 90% remaining

SMILES: Cc1cccc(N(C)C(=O)OCSc2nc(=O)c3[nH]ccc3n2CCOC(C)C)c1 [Example 245]
- Papp at 90 min, 10 µM [1, 9]: 21.6 ×10⁻⁶ cm/s
- SIF [2, 10]: 99% remaining
- human Plasma stability ([3]; human plasma, at 1 h): 63% remaining
- SGF [4, 11]: 99% remaining

SMILES: CC(C)C[C@H](N)C(=O)NCCC(=O)OCn1ccc2c1c(=O)[nH]c(=S)n2CCOC(C)C.O=C(O)C(F)(F)F [Example 30]
- Papp at 90 min, 10 µM [1, 9]: < 0.269 ×10⁻⁶ cm/s
- SIF [2, 12]: 67% remaining
- human Plasma stability [3, 13]: 40% remaining
- SGF [4, 14]: 93% remaining

SMILES: CC(C)OCCn1c(SCOC(=O)[C@H](Cc2ccccc2)NC(=O)OC(C)(C)C)nc(=O)c2c1ccn2COC(=O)[C@H](Cc1ccccc1)NC(=O)OC(C)(C)C [Example 303, {[5-({[(2S)-2-{[(tert-butoxy)carbonyl]amino}-3-phenylpropanoyl]oxy}methyl)-4-oxo-1-[2-(propan-2-yloxy)ethyl]-1H,4H,5H-pyrrolo[3,2-d]pyrimidin-2-yl]sulfanyl}methyl (2S)-2-{[(tert-butoxy)carbonyl]amino}-3-phenylpropanoate]
- Papp at 90 min, 10 µM ([1]; Caco-2, pH 7.4): 5.56 ×10⁻⁶ cm/s
- SIF ([2]; % remaining @ 1 h): 1% @ 1 h
- human Plasma stability ([3]; % remaining @ 1 h): 28% @ 1 h
- SGF ([4]; % remaining @ 1 h): 46% @ 1 h

SMILES: CC(C)NC(=O)n1ccc2c1c(=O)[nH]c(=S)n2CCOC(C)C [Example 223]
- Papp at 90 min, 10 µM [1, 5]: 37 ×10⁻⁶ cm/s
- SIF [2, 6]: 70% remaining
- human Plasma stability [3, 7]: 99% remaining
- SGF [4, 8]: 87% remaining

SMILES: COC(=O)N1CCCC1C(=O)NCCCCC(=O)OCn1ccc2c1c(=O)[nH]c(=S)n2CCOC(C)C.O=C(O)C(F)(F)F (stereo not drawn) [Example 61]
- Papp at 90 min, 10 µM [1, 9]: 0.971 ×10⁻⁶ cm/s
- SIF [2, 12]: 92% remaining
- human Plasma stability [3, 13]: 0% remaining
- SGF [4, 14]: 98% remaining

SMILES: CC(C)C[C@@H](N)C(=O)OCSc1nc(=O)c2c(ccn2COC(=O)[C@H](N)CC(C)C)n1CCOC(C)C.O=C(O)C(F)(F)F.O=C(O)C(F)(F)F [Example 325, bis(trifluoroacetic acid) {[5-({[(2R)-2-amino-4-methylpentanoyl]oxy}methyl)-4-oxo-1-[2-(propan-2-yloxy)ethyl]-1H,4H,5H-pyrrolo[3,2-d]pyrimidin-2-yl]sulfanyl}methyl (2R)-2-amino-4-methylpentanoate]
- Papp at 90 min, 10 µM ([1]; Caco-2, pH 7.4): 0.908 ×10⁻⁶ cm/s
- SIF ([2]; % remaining @ 1 h): 3%@ 1 h
- human Plasma stability ([3]; % remaining @ 1 h): 1%@ 1 h
- SGF ([4]; % remaining @ 1 h): 99%@ 1 h

SMILES: CCC(=O)OCn1ccc2c1c(=O)[nH]c(=S)n2CCOC(C)C [Example 156]
- Papp at 90 min, 10 µM [1, 9]: 6.55 ×10⁻⁶ cm/s
- SIF [2, 15]: 1% @ 1 h
- human Plasma stability [3, 16]: 0% @ 1 h
- SGF [4, 17]: 99% @ 1 h

SMILES: CC(C)C[C@H](NC(=O)OC(C)(C)C)C(=O)OCn1c(=O)c2c(ccn2COC(=O)[C@H](CC(C)C)NC(=O)OC(C)(C)C)n(CCOC(C)C)c1=S [Example 316, [3-({[(2S)-2-{[(tert-butoxy)carbonyl]amino}-4-methylpentanoyl]oxy}methyl)-4-oxo-1-[2-(propan-2-yloxy)ethyl]-2-sulfanylidene-1H,2H,3H,4H,5H-pyrrolo [3,2-d]pyrimidin-5-yl]methyl (2S)-2-{[(tert-butoxy)carbonyl]amino}-4-methylpentanoate]
- Papp at 90 min, 10 µM ([1]; Caco-2, pH 7.4): 7.6 ×10⁻⁶ cm/s
- SIF ([2]; % remaining @ 1 h): 6%@ 1 h
- human Plasma stability ([3]; % remaining @ 1 h): 37%@ 1 h
- SGF ([4]; % remaining @ 1 h): 99%@ 1 h

SMILES: CC(C)OCCn1c(SCOC(=O)N(C)C(C)(C)C)nc(=O)c2c1ccn2COC(=O)N(C)C(C)(C)C.O=C(O)C(F)(F)F [Example 168]
- Papp at 90 min, 10 µM [1, 9]: 28.1 ×10⁻⁶ cm/s
- SIF [2, 15]: 94% @ 1 h
- human Plasma stability [3, 16]: 88% @ 1 h
- SGF [4, 17]: 100% @ 1 h

SMILES: CC(C)OCCn1c(SCOC(=O)N(C)c2ccccc2Cl)nc(=O)c2c1ccn2COC(=O)N(C)c1ccccc1Cl [Example 249]
- Papp at 90 min, 10 µM [1, 9]: 28.4 ×10⁻⁶ cm/s
- SIF [2, 10]: 95% remaining
- human Plasma stability ([3]; human plasma, at 1 h): 98% remaining
- SGF [4, 11]: 89% remaining

SMILES: CC(C)OCCn1c(=S)[nH]c(=O)c2c1ccn2COC(=O)CCCCNC(=O)[C@@H](N)[C@@H](C)O.O=C(O)C(F)(F)F [Example 39]
- Papp at 90 min, 10 µM [1, 9]: < 0.196 ×10⁻⁶ cm/s
- SIF [2, 12]: 91% remaining
- human Plasma stability [3, 13]: 5% remaining
- SGF [4, 14]: 91% remaining

SMILES: CC(C)OCCn1c(SCOC(=O)[C@@H](N)Cc2ccccc2)nc(=O)c2c1ccn2COC(=O)[C@@H](N)Cc1ccccc1.O=C(O)C(F)(F)F.O=C(O)C(F)(F)F [Example 309, bis(trifluoroacetic acid) {[5-({[(2S)-2-amino-3-phenylpropanoyl]oxy}methyl)-4-oxo-1-[2-(propan-2-yloxy)ethyl]-1H,4H,5H-pyrrolo[3,2-d]pyrimidin-2-yl]sulfanyl}methyl (2S)-2-amino-3-phenylpropanoate]
- Papp at 90 min, 10 µM ([1]; Caco-2, pH 7.4): < 0.123 ×10⁻⁶ cm/s
- SIF ([2]; % remaining @ 1 h): 86% @ 1 h
- human Plasma stability ([3]; % remaining @ 1 h): 5% @ 1 h
- SGF ([4]; % remaining @ 1 h): 98% @ 1 h

SMILES: CC(C)OCCn1c(SCOC(=O)N(C)CC(F)(F)F)nc(=O)c2c1ccn2COC(=O)N(C)CC(F)(F)F [Example 95, {2-[{{[methyl(2,2,2-trifluoroethyl)carbamoyl]oxy}methyl)sulfanyl]-4-oxo-1-[2-(propan-2-yloxy)ethyl]-1H, 4H,5H-pyrrolo[3,2-d]pyrimidin-5-yl}methyl N-methyl-N-(2,2,2-trifluoroethyl)carbamate]
- Papp at 90 min, 10 µM ([1]; Caco-2, pH 7.4, donor 10 μM, 90 minutes, 37° C., direction not given): 18.8 ×10⁻⁶ cm/s
- SIF [2, 18]: 95
- human Plasma stability ([3]; % remaining at 1 h, human plasma, 1 μM, 37° C.): 99% remaining
- SGF [4, 18]: 100

SMILES: CC(C)OCCn1c(SCOC(=O)N(C)C(C)C)nc(=O)c2c1ccn2COC(=O)N(C)C(C)C.O=C(O)C(F)(F)F [Example 171]
- Papp at 90 min, 10 µM [1, 9]: 21.7 ×10⁻⁶ cm/s
- SIF [2, 15]: 89% @ 1 h
- human Plasma stability [3, 16]: 97% @ 1 h
- SGF [4, 17]: 100% @ 1 h

SMILES: CC(C)OCCn1c(=S)[nH]c(=O)c2c1ccn2C(=O)OC(C)C [Example 231]
- Papp at 90 min, 10 µM [1, 9]: 3.63 ×10⁻⁶ cm/s
- SIF [2, 10]: 40% remaining
- human Plasma stability ([3]; human plasma, at 1 h): 0% remaining
- SGF [4, 11]: 100% remaining

SMILES: C=CCCN(C)C(=O)OCSc1nc(=O)c2[nH]ccc2n1CCOC(C)C.O=C(O)C(F)(F)F [Example 179]
- Papp at 90 min, 10 µM [1, 9]: 14.5 ×10⁻⁶ cm/s
- SIF [2, 15]: 91% @ 1 h
- human Plasma stability [3, 16]: 99% @ 1 h
- SGF [4, 17]: 95% @ 1 h
